According to patent US20260262643A1, “HERBICIDAL BENZOXAZINES” (FMC CORPORATION, priority 2022, published 2026):

What was measured:
barnyardgrass [1] = assay: Test C preemergence; type: in vivo, Echinochloa crusgalli; conditions: preemergence, 0 to 100 scale (0 no effect, 100 complete control)
Summary of the method: (§1)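 Greenhouse herbicide screen, 10-day duration. Test chemicals in solvent/surfactant blend were sprayed onto soil at sowing (pre) or onto 2–10 cm seedlings at one to two leaves (post); injury scored visually against controls, 0 no effect to 100 complete control.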

blackgrass [2] = assay: Test C preemergence; type: in vivo, Alopecurus myosuroides; conditions: preemergence, 0 to 100 scale (0 no effect, 100 complete control)
Summary of the method: as §1

corn [3] = assay: Test C preemergence; type: in vivo, Zea mays; conditions: preemergence, 0 to 100 scale (0 no effect, 100 complete control)
Summary of the method: as §1

green foxtail [4] = assay: Test C preemergence; type: in vivo, Setaria viridis; conditions: preemergence, 0 to 100 scale (0 no effect, 100 complete control)
Summary of the method: as §1

kochia [5] = assay: Test C preemergence; type: in vivo, Bassia scoparia; conditions: preemergence, 0 to 100 scale (0 no effect, 100 complete control)
Summary of the method: as §1

oat, wild [6] = assay: Test C preemergence; type: in vivo, Avena fatua; conditions: preemergence, 0 to 100 scale (0 no effect, 100 complete control)
Summary of the method: as §1

pigweed, palmer [7] = assay: Test C preemergence; type: in vivo, Amaranthus palmeri; conditions: preemergence, 0 to 100 scale (0 no effect, 100 complete control)
Summary of the method: as §1

ragweed [8] = assay: Test C preemergence; type: in vivo, Ambrosia artemisiifolia; conditions: preemergence, 0 to 100 scale (0 no effect, 100 complete control)
Summary of the method: as §1

ryegrass, Italian [9] = assay: Test C preemergence; type: in vivo, Lolium multiflorum; conditions: preemergence, 0 to 100 scale (0 no effect, 100 complete control)
Summary of the method: as §1

soybean [10] = assay: Test C preemergence; type: in vivo, Glycine max; conditions: preemergence, 0 to 100 scale (0 no effect, 100 complete control)
Summary of the method: as §1

wheat [11] = assay: Test C preemergence; type: in vivo, Triticum aestivum; conditions: preemergence, 0 to 100 scale (0 no effect, 100 complete control)
Summary of the method: as §1

barnyardgrass [12] = assay: Test C postemergence; type: in vivo, Echinochloa crusgalli; conditions: postemergence, 10 days
Summary of the method: as §1

blackgrass [13] = assay: Test C postemergence; type: in vivo, Alopecurus myosuroides; conditions: postemergence, 10 days
Summary of the method: as §1

corn [14] = assay: Test C postemergence; type: in vivo, Zea mays; conditions: postemergence, 10 days
Summary of the method: as §1

green foxtail [15] = assay: Test C postemergence; type: in vivo, Setaria viridis; conditions: postemergence, 10 days
Summary of the method: as §1

kochia [16] = assay: Test C postemergence; type: in vivo, Bassia scoparia; conditions: postemergence, 10 days
Summary of the method: as §1

oat, wild [17] = assay: Test C postemergence; type: in vivo, Avena fatua; conditions: postemergence, 10 days
Summary of the method: as §1

pigweed, palmer [18] = assay: Test C postemergence; type: in vivo, Amaranthus palmeri; conditions: postemergence, 10 days
Summary of the method: as §1

ragweed [19] = assay: Test C postemergence; type: in vivo, Ambrosia artemisiifolia; conditions: postemergence, 10 days
Summary of the method: as §1

ryegrass, Italian [20] = assay: Test C postemergence; type: in vivo, Lolium multiflorum; conditions: postemergence, 10 days
Summary of the method: as §1

soybean [21] = assay: Test C postemergence; type: in vivo, Glycine max; conditions: postemergence, 10 days
Summary of the method: as §1

wheat [22] = assay: Test C postemergence; type: in vivo, Triticum aestivum; conditions: postemergence, 10 days
Summary of the method: as §1

galium = assay: Test C postemergence; type: in vivo, Galium aparine; conditions: postemergence, 10 days
Summary of the method: as §1

horseweed = assay: Test C postemergence; type: in vivo, Erigeron canadensis; conditions: postemergence, 10 days
Summary of the method: as §1

barnyardgrass [23] = assay: Test D flooded paddy test; type: in vivo, Echinochloa crus-galli; conditions: 250 g ai/ha, applied to paddy water, visual rating after 13 to 14 days, scale 0 to 100 (0 no effect, 100 complete control)
Summary of the method: (§2)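 Seedlings reached the 2-leaf stage, then pots were flooded to 3 cm over the soil surface. Compound was applied into the water, depth was maintained, and plants stayed in the greenhouse 13 to 14 days before visual scoring (0–100) relative to controls.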

ducksalad = assay: Test D flooded paddy test; type: in vivo, Heteranthera limosa; conditions: 250 g ai/ha, applied to paddy water, visual rating after 13 to 14 days, scale 0 to 100 (0 no effect, 100 complete control)
Summary of the method: as §2

rice = assay: Test D flooded paddy test; type: in vivo, Oryza sativa; conditions: 250 g ai/ha, applied to paddy water, visual rating after 13 to 14 days, scale 0 to 100 (0 no effect, 100 complete control)
Summary of the method: as §2

sedge, umbrella = assay: Test D flooded paddy test; type: in vivo, Cyperus difformis; conditions: 250 g ai/ha, applied to paddy water, visual rating after 13 to 14 days, scale 0 to 100 (0 no effect, 100 complete control)
Summary of the method: as §2

[24] = 125 g ai/ha, 0 to 100 scale, 0 no effect, 100 complete control
[25] = 500 g ai/ha, 0 to 100 scale (0 no effect, 100 complete control)

Cc1cccc2c1O[C@@H](C)CN2C(=O)c1cccc(-n2cnc(N(C)S(C)(=O)=O)n2)c1 [Compound 299]
Barnyardgrass plant response rating (barnyardgrass [1]; 500 g ai/ha): 80
Barnyardgrass plant response rating (barnyardgrass [1]; Test C, 125 g ai/ha): 10
Blackgrass plant response rating (blackgrass [2]; 500 g ai/ha): 70
Blackgrass plant response rating (blackgrass [2]; Test C, 125 g ai/ha): 30
Corn plant response rating (corn [3]; 500 g ai/ha): 30
Corn plant response rating (corn [3]; Test C, 125 g ai/ha): 0
Foxtail, Green plant response rating (green foxtail [4]; 500 g ai/ha): 100
Foxtail, Green plant response rating (green foxtail [4]; Test C, 125 g ai/ha): 60
Kochia plant response rating (kochia [5]; 500 g ai/ha): 80
Kochia plant response rating (kochia [5]; Test C, 125 g ai/ha): 0
Oat, Wild plant response rating (oat, wild [6]; 500 g ai/ha): 90
Oat, Wild plant response rating (oat, wild [6]; Test C, 125 g ai/ha): 0
Pigweed, Palmer plant response rating (pigweed, palmer [7]; 500 g ai/ha): 90
Pigweed, Palmer plant response rating (pigweed, palmer [7]; Test C, 125 g ai/ha): 50
Ragweed plant response rating (ragweed [8]; 500 g ai/ha): 100
Ragweed plant response rating (ragweed [8]; Test C, 125 g ai/ha): 70
Ryegrass, Italian plant response rating (ryegrass, Italian [9]; 500 g ai/ha): 90
Ryegrass, Italian plant response rating (ryegrass, Italian [9]; Test C, 125 g ai/ha): 70
Soybean plant response rating (soybean [10]; 500 g ai/ha): 0
Soybean plant response rating (soybean [10]; Test C, 125 g ai/ha): 0
Wheat plant response rating (wheat [11]; 500 g ai/ha): 30
Wheat plant response rating (wheat [11]; Test C, 125 g ai/ha): 0
Plant response rating, Barnyardgrass (barnyardgrass [12]; [24]): 10
Plant response rating, Barnyardgrass (barnyardgrass [12]; [25]): 50
Plant response rating, Blackgrass (blackgrass [13]; [24]): 20
Plant response rating, Blackgrass (blackgrass [13]; [25]): 90
Plant response rating, Corn (corn [14]; [24]): 10
Plant response rating, Corn (corn [14]; [25]): 20
Plant response rating, Foxtail, Green (green foxtail [15]; [24]): 10
Plant response rating, Foxtail, Green (green foxtail [15]; [25]): 40
Plant response rating, Kochia (kochia [16]; [24]): 10
Plant response rating, Kochia (kochia [16]; [25]): 70
Plant response rating, Oat, Wild (oat, wild [17]; [24]): 20
Plant response rating, Oat, Wild (oat, wild [17]; [25]): 60
Plant response rating, Pigweed, Palmer (pigweed, palmer [18]; [24]): 40
Plant response rating, Pigweed, Palmer (pigweed, palmer [18]; [25]): 60
Plant response rating, Ragweed (ragweed [19]; [24]): 0
Plant response rating, Ragweed (ragweed [19]; [25]): 0
Plant response rating, Ryegrass, Italian (ryegrass, Italian [20]; [24]): 70
Plant response rating, Ryegrass, Italian (ryegrass, Italian [20]; [25]): 90
Plant response rating, Soybean (soybean [21]; [24]): 60
Plant response rating, Soybean (soybean [21]; [25]): 100
Plant response rating, Wheat (wheat [22]; [24]): 20
Plant response rating, Wheat (wheat [22]; [25]): 40
Plant response rating, Galium (galium; [24]): 80
Plant response rating, Galium (galium; [25]): 90
Plant response rating, Horseweed (horseweed; [24]): 10
Plant response rating, Horseweed (horseweed; [25]): 30
Plant response rating, Barnyardgrass (Flood) (barnyardgrass [23]): 0
Plant response rating, Ducksalad (Flood) (ducksalad): 95
Plant response rating, Rice (Flood) (rice): 0
Plant response rating, Sedge, Umbrella (Flood) (sedge, umbrella): 25
